Data reported in patent US20030144346A1, “Methods and compositions for regulation of 5-alpha reductase activity” (priority 1997, published 2003).
Several values for one entry are separate records, joined by “and”; a condition that tells them apart may be missing. Equal values may be shown once.

What was measured:
[1] = molecular target: T1, type 2 human 5α-reductase (HRED2) (Homo sapiens, UniProt P31213); test: Whole cell assay of 5α-reductase, type 2 isoenzyme; format: cell-based; parameters: expressed in transfected cells; host or cells: rat 1A cells infected with pMV7 retrovirus; conditions: for IC50: Table 7, read-out: HCRED2 IC50;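 on all read-outs here: intact rat 1A cells genetically modified to carry human type 2 5α-reductase served as the enzyme source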
T1 sequence (P31213 1-254): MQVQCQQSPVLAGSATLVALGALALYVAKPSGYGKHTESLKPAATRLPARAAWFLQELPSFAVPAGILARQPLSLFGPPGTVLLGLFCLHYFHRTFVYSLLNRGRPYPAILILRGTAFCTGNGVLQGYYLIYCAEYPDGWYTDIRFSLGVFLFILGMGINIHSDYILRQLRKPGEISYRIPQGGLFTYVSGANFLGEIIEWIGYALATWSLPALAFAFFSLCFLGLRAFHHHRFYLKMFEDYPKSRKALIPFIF

[2] = molecular target: T2, type 1 human 5α-reductase (HRED1) (Homo sapiens, UniProt P18405); test: Whole cell assay of 5α-reductase, type 1 isoenzyme; format: cell-based; parameters: expressed in transfected cells; host or cells: rat 1A cells infected with pMV7 retrovirus;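 further: intact rat 1A cells engineered to express the human type 1 5α-reductase isozyme serve as the enzyme source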
T2 sequence (P18405 1-259): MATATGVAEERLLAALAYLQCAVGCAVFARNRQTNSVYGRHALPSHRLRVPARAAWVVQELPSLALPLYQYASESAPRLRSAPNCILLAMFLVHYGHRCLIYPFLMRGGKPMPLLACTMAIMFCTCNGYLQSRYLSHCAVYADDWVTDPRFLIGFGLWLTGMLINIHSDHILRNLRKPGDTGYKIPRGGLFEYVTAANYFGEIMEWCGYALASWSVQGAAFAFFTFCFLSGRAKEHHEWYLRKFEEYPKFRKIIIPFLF

[3] = molecular target: T2, type 1 human 5α-reductase (HRED1); test: Cell free assay of 5α-reductase, microsomes of rat 1A cells expressing type 1 isoenzyme (HRED1); format: biochemical; parameters: expressed in transfected cells; host or cells: rat 1A cells infected with pMV7 retrovirus; microsomes;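 further: microsomes from rat 1A cells expressing human type 1 5α-reductase, conversion of radiolabeled testosterone to dihydrotestosterone quantified by thin layer chromatography with radioanalytic scanning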
[4] = Body and organ weight loss; format: in vivo; conditions: compared with ECG
Description: By way of example, male Sprague-Dawley rats (body weight 180 g±10 g) are used. Compounds are intraperitoneally injected into rats in one group each day for 7 days. Rats in the control group receive 0.1 ml 30% ethanol. Body and organ weights are determined.

[5] = tested on: human prostate and breast tumors; test: Human prostate and breast tumors in animal models; format: in vivo, nude mice
Description: A compound of this invention can be used to treat breast or prostate cancer. […] By way of example, human prostate cancer PC-3 cells are grown in culture medium. About one million cells are injected into male nude mice and the growth of tumors followed. Within two weeks, the tumor grows to about 100 mm^3. Three tumor bearing mice are injected with a test compound each day.

[6] = molecular target: T1, type 2 human 5α-reductase (HRED2); test: Cell free assay of 5α-reductase, microsomes of rat 1A cells expressing type 2 isoenzyme (HRED2); format: biochemical; parameters: expressed in transfected cells; host or cells: rat 1A cells infected with pMV7 retrovirus; microsomes;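 further: labeled testosterone and its product dihydrotestosterone measured in microsomal reaction extracts via thin layer chromatography plus radioanalytic scanning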
[7] = tested on: 5α-reductases isozyme 2 and isozyme 1; conditions: Russell and Wilson, 1994; cited from earlier work
[8] = 100 μM, cell free assay, Table 6, read-out: HRED2 % Inhibition @ 100 μM
[9] = whole cell assay, Table 7, read-out: HCRED1 IC50
[10] = 100 μM, cell free assay, Table 6, read-out: HRED1 % Inhibition @ 100 μM
[11] = 100 uM, cell free assay, Table 1, read-out: HRED2 % Inhibition @ 100 uM
[12] = cell free assay, Table 1 flavanoids, read-out: HRED2 IC50
[13] = 100 uM, cell free assay, Table 1, read-out: HRED1 % Inhibition @ 100 uM
[14] = cell free assay, Table 1 flavanoids, read-out: HRED1 IC50
[15] = 100 μM, cell free assay, Table 5
[16] = cell free assay, Table 5 epigallocatechin derivatives, read-out: HRED2 IC50
[17] = cell free assay, Table 5 epigallocatechin derivatives, read-out: HRED1 IC50
[18] = read-out: HRED2 % Inhibition @ 100 uM
[19] = read-out: HRED1 % Inhibition @ 100 uM
[20] = cell free assay, Table 4 quinones, read-out: HRED2 IC50
[21] = 100 uM, cell free assay, Table 2

Structure (SMILES) | IC50 [1] [µM] | IC50 [2, 9] [µM] | HRED2 % Inhibition @ 100 μM ([1]; Table 7) [%] | IC50 [6, 16] [µM] | HRED1 % Inhibition @ 100 μM ([2]; whole cell assay, Table 7) [%] | IC50 [3, 17] [µM] | inhibition at 100 µM ([1]; Table 7) [%] | inhibition at 100 µM ([2]; whole cell assay, Table 7) [%] | further results
O=C(O[C@@H]1Cc2c(O)cc(O)cc2O[C@@H]1c1cc(O)c(O)c(O)c1)c1cc(O)c(O)c(O)c1 [Epigallocatechin Gallate] | – | – | – | – | – | – | – | – | HRED2 % Inhibition @ 100 μM ([1]; Table 7, listed as EGCG): 5% and 0%; inhibitory activity in the whole cell assay, type 1 isoenzyme, in words ([2]; whole cell assay): low; inhibitory activity against type 1 isoenzyme, in words ([3]; cell-free assay): high; reduction of body weight [4]: significantly more effective; effect on size of human prostate and breast tumors [5]: surprisingly effective in suppressing and even reducing the size
CCCCCC#CCC#CCC#CCC#CCCCC(=O)O [5,8,11,14-Eocpsatetraynoic Acid, 5,8,11,14-eicosatetraynoic acid] | 2 | 22 | – | – | – | – | 86 | 67 | inhibition at 100 µM [6, 8]: 81%; IC50 ([6]; cell-free assay, read-out: IC50, type 2 isoenzyme): 3 µM; inhibition at 100 µM [3, 10]: 97%; IC50 ([3]; cell-free assay, read-out: IC50, type 1 isoenzyme): 15 µM
Oc1cc(O)c2c(c1)O[C@H](c1ccc(O)c(O)c1)[C@H](O)C2 [Epicatechin] | > 100 | > 100 | – | – | – | – | 1 | 0 | inhibition at 100 µM [6, 11]: 4%; IC50 [6, 12]: > 100 µM; inhibition at 100 µM [3, 13]: 14%; IC50 [3, 14]: > 100 µM
Oc1cc(O)c2c(c1)O[C@H](c1cc(O)c(O)c(O)c1)[C@H](O)C2 [Epigallocatechin] | > 100 | > 100 | – | > 100 | – | 62 | 1 | 15 | inhibition at 100 µM [6, 11]: 3%; inhibition at 100 µM ([6]; 100 μM, cell free assay, Table 5, read-out: HRED2 % Inhibition @ 100 μM): 30%; IC50 [6, 12]: > 100 µM; inhibition at 100 µM [3, 13]: 15%; inhibition at 100 µM ([3]; 100 μM, cell free assay, Table 5, read-out: HRED1 % Inhibition @ 100 μM): 61%; IC50 [3, 14]: > 100 µM
Cc1cc2c(C(C)C)c(O)c(O)c(C=O)c2c(O)c1-c1c(C)cc2c(C(C)C)c(O)c(O)c(C=O)c2c1O [Gossypol] | 6 | – | – | – | – | – | 99 | 100 | IC50 [6]: 21 µM; inhibition at 100 µM [6, 18]: 99%; IC50 [2]: 7 µM; inhibitory activity in the whole cell assay, type 1 isoenzyme, in words ([2]; whole cell assay): active; IC50 [3]: 7 µM; inhibition at 100 µM [3, 19]: 99%
CC1=CC(=O)c2ccccc2C1=O [Menadione] | 79 | – | – | – | – | – | 62 | 82 | inhibition at 100 µM ([6]; 100 μM, cell free assay, Table 4, read-out: HRED2 % Inhibition @ 100 μM): 81%; IC50 [6, 20]: 5 µM; inhibitory activity against type 2 isoenzyme, in words ([6]; cell-free assay): potent cell-free inhibitors; IC50 ([2]; HCRED1 IC50, whole cell assay, Table 7): 51 µM; inhibitory activity in the whole cell assay, type 1 isoenzyme, in words ([2]; whole cell assay): moderate activity; IC50 [3]: 6 µM; inhibitory activity against type 1 isoenzyme, in words ([3]; cell-free assay): potent cell-free inhibitors; inhibition at 100 µM ([3]; read-out: HRED1 % Inhibition @ 100 μM): 77%
COc1cc(CCC(=O)CC(=O)CCc2ccc(O)c(OC)c2)ccc1O [Tetrahydrocurcumin] | 7 | 36 | – | – | – | – | 92 | 81 | inhibition at 100 µM [6, 18]: 73%; IC50 ([6]; read-out: HRED2 IC50): 29 µM; IC50 ([3]; cell free assay, Table 3 curcumin and related compounds, read-out: HRED1 IC50): 80 µM; inhibition at 100 µM [3, 19]: 56%
O=C1c2ccccc2C(=O)c2c(O)c(O)cc(O)c21 [Purpurin] | > 100 | > 100 | – | – | – | – | 7 | 47 | IC50 [6, 20]: > 100 µM; IC50 ([3]; cell free assay, Table 4 quinones, read-out: HRED1 IC50): 2 µM
CC(C)(C)NC(=O)[C@H]1CC[C@H]2[C@@H]3CC[C@H]4NC(=O)C=C[C@]4(C)[C@H]3CC[C@]12C [Finasteride] | – | – | – | – | – | – | – | – | affinity for isozyme 2 relative to isozyme 1 [7]: 30 fold

More lines, main results first:

IC50 [1] [µM] | IC50 [2, 9] [µM] | HRED2 % Inhibition @ 100 μM ([1]; Table 7) [%] | IC50 [6, 16] [µM] | HRED1 % Inhibition @ 100 μM ([2]; whole cell assay, Table 7) [%] | IC50 [3, 17] [µM] | Structure (SMILES) | inhibition at 100 µM ([1]; Table 7) [%] | inhibition at 100 µM ([2]; whole cell assay, Table 7) [%] | further results
57 | 49 | 96 | 66 | 97 | 23 | O=C(OC1Cc2c(O)cc(O)cc2OC1c1cc(O)c(O)c(O)c1)c1ccc2ccccc2c1 (stereo not shown) [HZIV 120] | – | – | HRED2 % Inhibition @ 100 μM [6, 15]: 97%; HRED1 % Inhibition @ 100 μM [3, 15]: 99%
> 100 | > 100 | – | – | – | – | CCCCCCCCCCCCCCCCCC(=O)O [Stearic Acid, Stearic Acid C18:0] | 23 | 10 | inhibition at 100 µM [6, 8]: 35%; IC50 ([6]; cell free assay, Table 6 fatty acids, read-out: HRED2 IC50): > 100 µM; inhibition at 100 µM [3, 10]: 71%; IC50 ([3]; cell free assay, Table 6 fatty acids, read-out: HRED1 IC50): 27 µM
14 | 8 | 98 | 63 | 99 | 25 | CCCCCC=CCC=CCC=CCCCCC(=O)OC1Cc2c(O)cc(O)cc2OC1c1cc(O)c(O)c(O)c1 (stereo not shown) [HZIV 142] | – | – | HRED2 % Inhibition @ 100 μM [6, 15]: 93%; HRED1 % Inhibition @ 100 μM [3, 15]: 97%
8 | 7 | 98 | 76 | 99 | 29 | CCCCC=CCCCCCCCC(=O)OC1Cc2c(O)cc(O)cc2OC1c1cc(O)c(O)c(O)c1 (stereo not shown) [HZIV 160] | – | – | HRED2 % Inhibition @ 100 μM [6, 15]: 96%; inhibitory activity in the whole cell assay, type 1 isoenzyme, in words ([2]; whole cell assay): effective; HRED1 % Inhibition @ 100 μM [3, 15]: 99%; inhibitory activity against type 1 isoenzyme, in words ([3]; cell-free assay): effective
> 100 | > 100 | 0 | > 100 | 10 | 47 | CCCCCC(=O)OC1Cc2c(O)cc(O)cc2OC1c1cc(O)c(O)c(O)c1 (stereo not shown) [HZIV 169] | – | – | HRED2 % Inhibition @ 100 μM [6, 15]: 39%; HRED1 % Inhibition @ 100 μM [3, 15]: 90%
> 100 | > 100 | 14 | – | 34 | – | COc1cc(CCNC(=O)C=Cc2ccc(O)c(O)c2)ccc1O [HZIV 90] | – | – | HRED2 % Inhibition @ 100 uM [6, 21]: 13%; IC50 ([6]; cell free assay, Table 2 catechols, read-out: HRED2 IC50): > 100 µM; HRED1 % Inhibition @ 100 uM [3, 21]: 23%; IC50 ([3]; cell free assay, Table 2 catechols, read-out: HRED1 IC50): > 100 µM
